In ChEMBL document CHEMBL1129564, “Tyrosine kinase inhibitors. 10. Isomeric 4-[(3-bromophenyl)amino]pyrido[d]-pyrimidines are potent ATP binding site inhibitors of the tyrosine kinase function of the epidermal growth factor receptor” (J Med Chem, 1996):

Experiments:
[1] = target: T1, Epidermal growth factor receptor (Homo sapiens, UniProt P00533); experiment: biochemical
Description: Inhibitory potency against isolated epidermal growth factor receptor (EGFR) from human A431 carcinoma cells

[2] = target: T1, Epidermal growth factor receptor; experiment: Inhibition of Epidermal growth factor receptor autophosphorylation in A431 human epidermoid carcinoma cells

T1 sequence (P00533 whole entry): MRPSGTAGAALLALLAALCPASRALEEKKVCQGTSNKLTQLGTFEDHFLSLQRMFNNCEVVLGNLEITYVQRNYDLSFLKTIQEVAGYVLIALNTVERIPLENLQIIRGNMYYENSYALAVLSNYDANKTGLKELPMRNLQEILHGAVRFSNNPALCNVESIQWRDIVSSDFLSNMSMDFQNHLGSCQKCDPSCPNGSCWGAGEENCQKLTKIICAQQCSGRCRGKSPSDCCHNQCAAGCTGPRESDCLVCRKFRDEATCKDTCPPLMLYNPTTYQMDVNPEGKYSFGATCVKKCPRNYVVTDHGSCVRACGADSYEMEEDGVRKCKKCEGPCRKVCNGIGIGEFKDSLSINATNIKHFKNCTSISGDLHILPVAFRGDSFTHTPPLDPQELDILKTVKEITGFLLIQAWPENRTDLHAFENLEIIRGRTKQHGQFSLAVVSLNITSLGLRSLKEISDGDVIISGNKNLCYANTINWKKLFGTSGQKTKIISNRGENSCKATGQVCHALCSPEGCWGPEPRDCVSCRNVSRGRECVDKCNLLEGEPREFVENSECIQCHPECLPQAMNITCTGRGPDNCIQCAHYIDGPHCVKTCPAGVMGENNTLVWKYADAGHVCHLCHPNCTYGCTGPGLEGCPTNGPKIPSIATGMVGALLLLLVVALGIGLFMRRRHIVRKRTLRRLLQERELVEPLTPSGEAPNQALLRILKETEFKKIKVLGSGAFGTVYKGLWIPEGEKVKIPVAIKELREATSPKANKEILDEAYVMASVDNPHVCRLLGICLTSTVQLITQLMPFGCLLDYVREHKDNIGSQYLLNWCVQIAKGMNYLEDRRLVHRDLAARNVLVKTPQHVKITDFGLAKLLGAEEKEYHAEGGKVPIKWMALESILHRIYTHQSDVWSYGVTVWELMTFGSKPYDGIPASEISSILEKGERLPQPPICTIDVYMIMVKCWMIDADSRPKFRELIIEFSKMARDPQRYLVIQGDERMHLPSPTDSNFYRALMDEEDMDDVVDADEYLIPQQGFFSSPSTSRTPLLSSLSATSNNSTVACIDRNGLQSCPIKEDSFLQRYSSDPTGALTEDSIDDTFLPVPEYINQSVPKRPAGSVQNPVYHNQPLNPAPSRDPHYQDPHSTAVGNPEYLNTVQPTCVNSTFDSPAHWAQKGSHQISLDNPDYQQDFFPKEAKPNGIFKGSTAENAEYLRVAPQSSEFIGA

| SMILES | IC50 [1] [nM] | IC50 [2] [nM] |
| --- | --- | --- |
| Clc1ccc2ncnc(Nc3cccc(Br)c3)c2n1 | 18 | – |
| CNc1ccc2cncnc2c1 | 4 | – |
| COc1ccc2cncnc2c1 | 10 | – |
| CN(C)c1ccc2c(Nc3cccc(Br)c3)ncnc2n1 | 324 | 2300 |
| c1ccc(CNc2ncnc3cnccc23)cc1 | 2030 | – |
| COc1ccc2ncncc2c1 | 30 | – |
| CNC1=CC2N=CN(C)/C(=N\c3cccc(Br)c3)C2C=N1 (configuration not stated) | 3.1 | – |
| COc1ccc(CNc2cc3c(Nc4cccc(Br)c4)ncnc3cn2)cc1 | 2.3 | – |
| CNc1cc2c(Nc3ccccc3)ncnc2cn1 | 9 | – |
| c1ccc(CNc2ncnc3ncccc23)cc1 | > 10000 | – |
| c1ccc(CNc2ncnc3ccncc23)cc1 | 1460 | – |
| Fc1ccc2ncnc(Nc3cccc(Br)c3)c2n1 | 44 | – |
| Brc1cccc(Nc2ncnc3cccnc23)c1 | 34 | – |
| CN(C)c1ccc2ncncc2c1 | 120 | – |
| Nc1ccc2cncnc2c1 | 0.1 | – |
| c1ccc2ncncc2c1 [QUINAZOLINE] | 27 | – |

Next, values leading:

| IC50 [1] [nM] | IC50 [2] [nM] | SMILES |
| --- | --- | --- |
| 684 | – | Fc1ccc2c(Nc3cccc(Br)c3)ncnc2n1 |
| – | 2080 | Nc1cc2ncnc(NCc3ccccc3)c2cn1 |
| 4.3 | – | COc1ccc2ncnc(Nc3cccc(Br)c3)c2n1 |
| 51 | – | Brc1cccc(Nc2ncnc3cnccc23)c1 |
| 0.13 | 16 | Nc1cc2c(Nc3cccc(Br)c3)ncnc2cn1 |
| 35 | – | Brc1cccc(Nc2ncnc3ccncc23)c1 |
| 11 | – | CN(C)c1ccc2cncnc2c1 |
| 0.79 | – | Nc1ccc2ncncc2c1 |
| – | 14 | CN(C)c1cc2ncnc(Nc3cccc(Br)c3)c2cn1 |
| 603 | – | c1ccc(CNc2ncnc3cccnc23)cc1 |
| – | 15 | CNc1cc2c(Nc3cccc(Br)c3)ncnc2cn1 |
| 7 | – | CNc1ccc2ncncc2c1 |
| – | 16 | CNc1cc2ncnc(Nc3cccc(Br)c3)c2cn1 |
| 688 | – | Brc1cccc(Nc2ncnc3ncccc23)c1 |
